The values below come from US20140039056A1, “BROMFENAC ORGANIC SALTS AND PREPARATION METHOD, COMPOSITION AND USE THEREOF” (SHENYANG XINGQI PHARMACEUTICAL CO., LTD., priority 2010, published 2014).

The nature of series [1]: Chemical stability in solid state (accelerated stability test at 60° C.). It is filed as physicochemical. To be noted: for change of content in accelerated test at 60° C.: solid state, in words. The procedure: HPLC Analysis Conditions:
Detector: ultraviolet absorption detector (wavelength: 266 nm).
Chromatography column: octadecyl silica gel column (4.0 mm×150 mm, 5 um).
Mobile phase: 3.85 g of ammonium acetate was precisely weighed, added with water to reach the metered volume of 1000 mL.

A short description of series [2]: In vitro transdermal absorption test (diffusion cell, ex vivo rat skin). To be noted: for Accumulative osmolality: ex vivo rat skin, 32° C., n = 3; for Total osmolality of 24 h: 24 h accumulative osmolality x effective area 1.23 cm^2; for transdermal absorption amount relative to bromfenac sodium: in vitro; for Osmotic rate: slope of accumulative osmolality Q against time; for Osmotic percentage: total osmolality of 24 h / mass added to supplying chamber. The procedure:
Preparation of solutions of bromfenac salts: bromfenac sodium, bromfenac diethylamine salt of Example 1, and bromfenac trometamol salt of Example 2 were precisely weighed separately to obtain 0.25 g samples, which were separately placed in 25 ml volumetric flasks, and phosphate buffered solution (pH value was 7.0) was used to reach the metered volume to obtain stock solutions for standby use.
Chromatography conditions: detector: ultraviolet absorption detector (wavelength: 266 nm). Chromatography column: octadecyl silica column (4.0 mm×150 mm, 5 μm). Mobile phase: precisely weighed ammonium acetate 3.85 g, added with water to the metered volume of 1000 mL. 600 mL of this solution was taken, and added with 250 mL of methanol and 150 mL of tetrahydrofuran. Flow rate: 1.5 mL/min.
Plotting standard curves: bromfenac sodium, bromfenac diethylamine salt and bromfenac trometamol salt in suitable amounts were precisely weighed separately, dissolved in mobile phase, diluted separately to form test solutions with concentrations of 10, 30, 60, 120, 300, 700 μg/ml, which were separately weighed precisely to take 20 μl and injected into chromatography and separately assayed.
Transdermal absorption test: ex vivo skins of back and abdomen of 200-260 g rats were taken and used as osmotic membranes, which were fixed with suture on diffusion cells (diffusion cells having a diameter of 1.25 cm, and an effective area of 1.23 cm^2). Stock solutions of bromfenac sodium, bromfenac diethylamine salt and bromfenac trometamol salt in an amount of 2 ml were separately added to supplying chamber, 100 ml of physiological saline was used as receiving solution in receiving cells, kept at a constant temperature of 32° C., stirred (250 r/min). 5 ml samples of receiving solutions were taken precisely with time intervals of 0, 2, 4, 6, 8, 10, 12, 24 hours, filtered, measured according to the above method to determine first-order light spectrum derivative absorption values and calculate contents, and accumulative osmolality Q was calculated according to the following formula;
In the above formula, c is concentration of receiving solution sample; v1 is volume of sample as taken at every turn; v2 is volume of diffusion cell; A is diffusion area. Diagrams were plotted by using t as abscissa, Q as ordinate to obtain osmosis curves of bromfenac sodium, bromfenac diethylamine salt and bromfenac trometamol salt; linear regression was performed using accumulative osmolality Q against time, the obtained slope K was transdermal osmotic rate; the accumulative osmolality of 24 hours was multiplied by the effective osmotic area (1.23 cm^2) to obtain total osmolality of 24 hours; and the total osmolality of 24 hours was divided by the mass of the added product in the supplying chamber to obtain osmotic percentage.

The nature of series [3]: Chemical stability in aqueous state (25° C., dark). The note with it: for degradation products and content changes in aqueous solution: dark conditions, in words. It is filed as physicochemical.
For series [4] the following is noted: analgesic effect; cited from earlier work.
The conditions of series [5]: cited from earlier work.

Structures are written as SMILES. Where a name gives a salt, the structure may show the parent alone. Read-outs that look alike come from different tables or passages of the source.

With `Nc1c(CC(=O)O)cccc1C(=O)c1ccc(Br)cc1` [Bromfenac trometamol salt, bromfenac trometamol salt], the “content (HPLC), solid state” value in series [1] (60° C., 2 weeks) is given as 99.4%; in series [1] (60° C., 3 weeks), 99.2%. In addition, the “change of content in accelerated test at 60° C.” value (from here on “change of content”) in series [1] is “no significant substantial change”. The Accumulative osmolality in series [2] (2 hours) was 277.2 μg/cm^2; in series [2] (4 hours), 632.5 μg/cm^2; in series [2] (6 hours), 1268.3 μg/cm^2; in series [2] (8 hours), 2089.6 μg/cm^2; in series [2] (10 hours) it was 2736.1 μg/cm^2; in series [2] (12 hours), 3085.7 μg/cm^2. In series [2] (24 hours), this compound gave an Accumulative osmolality of 7326.9 μg/cm^2. The “Total osmolality of 24 h” value in series [2] is 9010.0 µg. Besides, the “transdermal absorption amount relative to bromfenac sodium” value in series [2] (24 hours) is given as 1.61 times. For the same compound, the Osmotic rate in series [2] is 320.61 μg/cm^2 · h^−1. This compound yielded an Osmotic percentage in series [2] of 45.05%. Also, the “content (HPLC), aqueous state” value is recorded as 99.3% in series [3] (25° C., dark, 2 weeks) and 99.1% in series [3] (25° C., dark, 3 weeks). In addition, the “degradation products and content changes in aqueous solution” value (from here on “degradation products and content changes”) in series [3] was “not observed”.

For the compound `Nc1c(CC(=O)O)cccc1C(=O)c1ccc(Br)cc1` [Bromfenac diethylamine salt, bromfenac diethylamine salt], the “content (HPLC), solid state” value is given as 99.5% in series [1] (60° C., 1 week); 99.3% in series [1] (60° C., 2 weeks); 99.2% in series [1] (60° C., 3 weeks); 99.5% in series [1] (Initial). In series [1], the “change of content” value is “no significant substantial change”. The Accumulative osmolality in series [2] (2 hours) is 322.8 μg/cm^2; in series [2] (4 hours), 964.1 μg/cm^2; in series [2] (6 hours) it was 1898.6 μg/cm^2; in series [2] (8 hours), 2721.8 μg/cm^2; in series [2] (10 hours) it was 3303.0 μg/cm^2; in series [2] (12 hours) it was 4123.6 μg/cm^2. In series [2] (24 hours), this compound showed an Accumulative osmolality of 8426.7 μg/cm^2. Also, the “Total osmolality of 24 h” value in series [2] came to 10360.0 µg. For the same compound, the “transdermal absorption amount relative to bromfenac sodium” value in series [2] (24 hours) came to 1.85 times. The Osmotic rate in series [2] turned out to be 369.04 μg/cm^2 · h^−1. The Osmotic percentage in series [2] is 51.80%. Further, the “content (HPLC), aqueous state” value came out at 99.5% in series [3] (25° C., dark, 1 week); 99.4% in series [3] (25° C., dark, 2 weeks); 99.2% in series [3] (25° C., dark, 3 weeks); 99.5% in series [3] (Initial). In addition, in series [3], the “degradation products and content changes” value is “not observed”.

As to `Nc1c(CC(=O)[O-])cccc1C(=O)c1ccc(Br)cc1.[Na+]` [Bromfenac sodium, 2-amino-3-(4-bromobenzoyl)phenylacetic acid sodium salt sesquialter hydrate, reference compound], the “content (HPLC), solid state” value was 99.5% in series [1] (60° C., 1 week); 99.3% in series [1] (60° C., 2 weeks); 99.1% in series [1] (60° C., 3 weeks); 99.6% in series [1] (Initial). Moreover, the “change of content” value in series [1] was “no significant substantial change”. For the same compound, the Accumulative osmolality is listed as 45.5 μg/cm^2 in series [2] (2 hours); 118.5 μg/cm^2 in series [2] (4 hours); 340.8 μg/cm^2 in series [2] (6 hours); 708.6 μg/cm^2 in series [2] (8 hours); 1231.3 μg/cm^2 in series [2] (10 hours); 2214.5 μg/cm^2 in series [2] (12 hours). Moreover, the Accumulative osmolality in series [2] (24 hours) is listed as 4554.1 μg/cm^2. Moreover, the “Total osmolality of 24 h” value in series [2] is 5600.0 µg. For the same compound, the Osmotic rate in series [2] was found to be 219.05 μg/cm^2 · h^−1. In addition, the Osmotic percentage in series [2] is 28.0%. Moreover, in series [4], the “potency relative to other non-steroid anti-inflammatory agents” value is recorded as 10 times. Also, the “content (HPLC), aqueous state” value in series [3] (25° C., dark, 1 week) was 99.5%; in series [3] (25° C., dark, 2 weeks), 99.4%; in series [3] (25° C., dark, 3 weeks), 99.1%; in series [3] (Initial), 99.6%. Also, the “degradation products and content changes” value in series [3] is “not observed”. Moreover, the solubility result in series [5] (0.1M hydrochloric acid solution) is recorded as “almost insoluble”; in series [5] (acetone), “almost insoluble”; in series [5] (acetonitrile), “almost insoluble”; in series [5] (ethanol), “slight soluble”; in series [5] (methanol), “soluble”; in series [5] (water) it was “soluble”.
